Each structure is given as a SMILES string. Marks after values point to notes of the source that are not given here.

One series deals with Botrytis cinerea. The experiment in a line: Example A: in vivo preventive test on Botrytis cinerea (grey mould). The conditions noted are these: gherkin plants, preventive spray, evaluated 4 to 5 days after inoculation. As to the method:
The young plants of gherkin are treated by spraying the active ingredient prepared as described above. Control plants are treated only with an aqueous solution of acetone/Dimethyl sulfoxide/Tween®. After 24 hours, the plants are contaminated by spraying the leaves with an aqueous suspension of Botrytis cinerea spores.

In a further series the test system is Phakopsora pachyrhizi. The experiment in a line: Example L: Phakopsora test (soybeans)/preventive. The conditions noted are these: preventive, evaluated 7 days after inoculation. The series is classed as in vivo.
For another series, the system named is Pyricularia oryzae. The series is classed as in vivo. The conditions noted are these: 500 ppm of active ingredient; rice, preventive; evaluated 8 days after inoculation.
In series [1] the test system is Blumeria graminis f. sp. hordei. The experiment in a line: Example G: Blumeria test (barley)/preventive. Format: in vivo. The conditions noted are these: 500 ppm of active ingredient, preventive, evaluated 7 days after inoculation. As to the method:
(§1) Solvent: 49 parts by weight of N,N-dimethylacetamide Emulsifier: 1 part by weight of alkylaryl polyglycol ether To produce a suitable preparation of active compound, 1 part by weight of active compound or active compound combination is mixed with the stated amounts of solvent and emulsifier, and the concentrate is diluted with water to the desired concentration. To test for preventive activity, young plants are sprayed with the preparation of active compound or active compound combination at the stated rate of application. After the spray coating has been dried, the plants are dusted with spores of Blumeria graminis f. sp. hordei.

The test system of series [2] is Fusarium nivale (var. majus). The experiment in a line: Example J: Fusarium nivale (var. majus)-test (wheat)/preventive. The series is classed as in vivo. The conditions noted are these: 500 ppm of active ingredient, preventive, evaluated 5 days after inoculation. The method, then: (§2) Solvent: 49 parts by weight of N,N-dimethylacetamide
(§3) Emulsifier: 1 part by weight of alkylaryl polyglycol ether
(§4) To produce a suitable preparation of active compound, 1 part by weight of active compound or active compound combination is mixed with the stated amounts of solvent and emulsifier, and the concentrate is diluted with water to the desired concentration.
To test for preventive activity, young plants are sprayed with the preparation of active compound or active compound combination at the stated rate of application.
After the spray coating has been dried, the plants are slightly injured by using a sandblast and afterwards they are sprayed with a conidia suspension of Fusarium nivale (var. majus).
The plants are placed in the greenhouse under a translucent incubation cabinet at a temperature of approximately 10° C. and a relative atmospheric humidity of approximately 100%.
(§5) The test is evaluated 5 days after the inoculation. 0% means an efficacy which corresponds to that of the untreated control, while an efficacy of 100% means that no disease is observed.

For another series, the system named is Venturia inaequalis. The experiment in a line: Example O: Venturia test (apples)/preventive. Format: in vivo. The conditions noted are these: 100 ppm of active ingredient, preventive, evaluated 10 days after inoculation. The method, then: Solvent: 24.5 parts by weight of acetone • 24.5 parts by weight of dimethylacetamide Emulsifier: 1 part by weight of alkylaryl polyglycol ether To produce a suitable preparation of active compound, 1 part by weight of active compound is mixed with the stated amounts of solvent and emulsifier, and the concentrate is diluted with water to the desired concentration. To test for preventive activity, young plants are sprayed with the preparation of active compound at the stated rate of application.

The test system of a further series is Sphaerotheca fuliginea. The experiment in a line: Example E: in vivo preventive test on Sphaerotheca fuliginea (powdery mildew on cucurbits). The conditions noted are these: gherkin plants, preventive spray, evaluated 15 days after inoculation. The method, then: The young plants of gherkin are treated by spraying the active ingredient prepared as described above. Control plants are treated only with an aqueous solution of acetone/Dimethyl sulfoxide/Tween®. After 24 hours, the plants are contaminated by spraying the leaves with an aqueous suspension of Sphaerotheca fuliginea spores.

The test system of another series is Septoria tritici. The experiment in a line: Example D: in vivo preventive test on Septoria tritici (leaf spot on wheat). The conditions noted are these: wheat plants, preventive spray, evaluated 24 days after inoculation. As to the method: The young plants of wheat are treated by spraying the active ingredient prepared as described above. Control plants are treated only with an aqueous solution of acetone/Dimethyl sulfoxide/Tween®. After 24 hours, the plants are contaminated by spraying the leaves with an aqueous suspension of Septoria tritici spores.

For the next series, the system named is Puccinia recondita. The experiment in a line: Example B: in vivo preventive test on Puccinia recondita (brown rust on wheat). The conditions noted are these: wheat plants, preventive spray, evaluated 11 days after inoculation. As to the method: The young plants of wheat are treated by spraying the active ingredient prepared as described above. Control plants are treated only with an aqueous solution of acetone/Dimethyl sulfoxide/Tween®. After 24 hours, the plants are contaminated by spraying the leaves with an aqueous suspension of Puccinia recondita spores.

For series [3] the following is noted: pH 2.7.
The test system of the next series is Uromyces appendiculatus. The experiment in a line: Example F: in vivo preventive test on Uromyces appendiculatus (bean rust). The conditions noted are these: bean plants, preventive spray, evaluated 11 days after inoculation. The method, then: The young plants of bean are treated by spraying the active ingredient prepared as described above. Control plants are treated only with an aqueous solution of acetone/Dimethyl sulfoxide/Tween®. After 24 hours, the plants are contaminated by spraying the leaves with an aqueous suspension of Uromyces appendiculatus spores.

The subject of the next series is Fusarium graminearum. Format: in vivo. The conditions noted are these: 500 ppm of active ingredient; barley, preventive; evaluated 5 days after inoculation.
The next series deals with Leptosphaeria nodorum. The experiment in a line: Example K: Leptosphaeria nodorum test (wheat)/preventive. The conditions noted are these: 500 ppm of active ingredient, preventive, evaluated 8 days after inoculation. Format: in vivo. The method, then:
as §1, with “sprayed” for “dusted”, “a spore suspension” for “spores”, “Leptosphaeria nodorum.” for “Blumeria graminis f. sp. hordei.”

The next series has as its system Pyrenophora teres. The experiment in a line: Example C: in vivo preventive test on Pyrenophora teres (net blotch on barley). The conditions noted are these: barley plants, preventive spray, evaluated 14 days after inoculation. As to the method: The young plants of barley are treated by spraying the active ingredient prepared as described above. Control plants are treated only with an aqueous solution of acetone/Dimethyl sulfoxide/Tween®. After 24 hours, the plants are contaminated by spraying the leaves with an aqueous suspension of Pyrenophora teres spores.

The next series has as its system Fusarium culmorum. The experiment in a line: Example H: Fusarium culmorum-test (wheat)/curative. Format: in vivo. The conditions noted are these: 500 ppm of active ingredient, curative, evaluated 5 days after inoculation. As to the method:
as §2, §3, §4
To test for curative activity, young plants are slightly injured by using a sandblast and afterwards they are sprayed with a conidia suspension of Fusarium culmorum and placed for 24 hours in a greenhouse under a translucent incubation cabinet at a temperature of approximately 22° C. and a relative atmospheric humidity of approximately 100% and are subsequently sprayed with the preparation of active compound at the stated rate of application.
After the spray coating has been dried, the plants remain in the greenhouse under translucent incubation cloches at a temperature of approximately 22° C. and a relative atmospheric humidity of approximately 100%.
as §5

For the molecule `OC(Cc1nccnc1I)(Cn1cncn1)C1(Cl)CC1` (stereo not shown) [Example I-54], the Eff. % was 100% with Botrytis cinerea (500 ppm of active ingredient); 99% in the series with Phakopsora pachyrhizi (100 ppm of active ingredient); 78% in the series with Pyricularia oryzae; 100% in series [1]; 100% in [2]; 89% with Venturia inaequalis. Besides, the Eff. % in the series on Sphaerotheca fuliginea (500 ppm of active ingredient) is 100%; in the series on Septoria tritici (500 ppm of active ingredient), 100%; in the series on Puccinia recondita (500 ppm of active ingredient), 97%; with Uromyces appendiculatus (500 ppm of active ingredient) it was 100%; with Fusarium graminearum, 100%. Also, the LogP in [3] was 2.07^[a].
In the case of `OC(Cc1ccnc(Cl)c1Cl)(Cn1cncn1)C1(Cl)CC1` (racemic) [Example I-82], the Eff. % (in the series on Botrytis cinerea (500 ppm of active ingredient); in the series with Leptosphaeria nodorum; in the series on Phakopsora pachyrhizi (100 ppm of active ingredient); in the series on Pyricularia oryzae; in series [1]; in series [2]) was 100% in each case. For the same molecule, the Eff. % is listed as 95% with Venturia inaequalis; 100% in the series on Sphaerotheca fuliginea (500 ppm of active ingredient); 100% in the series with Septoria tritici (500 ppm of active ingredient); 98% with Puccinia recondita (500 ppm of active ingredient); 97% in the series on Pyrenophora teres (500 ppm of active ingredient); 100% in the series with Uromyces appendiculatus (500 ppm of active ingredient). The molecule also displayed an Eff. % in the series on Fusarium graminearum of 100%. In addition, in series [3], the LogP was 2.39^[a].
As for `OC(Cc1cccnc1Cl)(Cn1cncn1)C1(F)CC1` (stereo not shown) [Example I-25], the Eff. % in the series with Botrytis cinerea (100 ppm of active ingredient) was 99%; in the series on Leptosphaeria nodorum, 100%; in the series on Phakopsora pachyrhizi (100 ppm of active ingredient), 99%; in series [1] it was 100%; in series [2] it was 100%; in the series on Venturia inaequalis, 89%. Moreover, the Eff. % with Fusarium culmorum is recorded as 100%; in the series on Sphaerotheca fuliginea (100 ppm of active ingredient) it was 100%; in the series on Septoria tritici (100 ppm of active ingredient), 100%; with Puccinia recondita (100 ppm of active ingredient), 100%; in the series on Pyrenophora teres (100 ppm of active ingredient) it was 97%; in the series with Uromyces appendiculatus (100 ppm of active ingredient) it was 100%. Moreover, the Eff. % in the series with Fusarium graminearum is listed as 100%. For the same molecule, in series [3], the LogP was 1.42^[a].
As for `OC(Cc1c(Cl)cncc1Cl)(Cn1cncn1)C1(F)CC1` (racemic) [Example I-62], the Eff. % in the series with Botrytis cinerea (500 ppm of active ingredient) was 100%; with Leptosphaeria nodorum, 100%; in the series with Phakopsora pachyrhizi (100 ppm of active ingredient), 99%; in series [1], 100%; in series [2], 100%; with Venturia inaequalis it was 100%. The Eff. % in the series on Fusarium culmorum was found to be 83%; with Sphaerotheca fuliginea (500 ppm of active ingredient) it was 100%; in the series on Septoria tritici (500 ppm of active ingredient), 100%; in the series with Puccinia recondita (500 ppm of active ingredient), 98%; in the series on Pyrenophora teres (500 ppm of active ingredient), 100%; in the series with Uromyces appendiculatus (500 ppm of active ingredient), 100%. For the same molecule, the Eff. % with Fusarium graminearum is on record as 100%. Moreover, the LogP in series [3] is 1.86^[a].
Take `CC(C)(F)C(O)(Cc1ccncc1Cl)Cn1cncn1` (racemic) [Example I-76]: the Eff. % in the series on Botrytis cinerea (500 ppm of active ingredient) is on record as 100%; in the series with Phakopsora pachyrhizi (100 ppm of active ingredient), 100%; in the series with Pyricularia oryzae, 71%; in series [1], 100%; in series [2], 100%; in the series with Venturia inaequalis it was 74%. Also, the Eff. % with Sphaerotheca fuliginea (500 ppm of active ingredient) amounted to 100%; in the series on Septoria tritici (500 ppm of active ingredient), 100%; with Puccinia recondita (500 ppm of active ingredient), 100%; in the series on Pyrenophora teres (500 ppm of active ingredient) it was 79%; in the series on Uromyces appendiculatus (500 ppm of active ingredient), 100%; with Fusarium graminearum, 86%. In addition, the LogP in series [3] was 1.20^[a].
Turning to `CC1(C(O)(Cc2ccncc2Cl)Cn2cncn2)CC1` (stereo not shown) [Example I-49], the Eff. % in the series on Botrytis cinerea (500 ppm of active ingredient) is 99%; in the series on Leptosphaeria nodorum it was 100%; in the series on Phakopsora pachyrhizi (100 ppm of active ingredient), 96%; in series [1] it was 100%; in series [2], 100%; in the series on Venturia inaequalis it was 100%. Also, the Eff. % in the series on Fusarium culmorum was 100%; in the series with Sphaerotheca fuliginea (500 ppm of active ingredient) it was 100%; with Septoria tritici (500 ppm of active ingredient), 100%; in the series with Puccinia recondita (500 ppm of active ingredient), 100%; with Pyrenophora teres (500 ppm of active ingredient), 93%; with Uromyces appendiculatus (500 ppm of active ingredient), 81%. Also, the Eff. % in the series on Fusarium graminearum amounted to 100%. In [3], the LogP was 1.57^[a].
With `OC(Cc1ccncc1F)(Cn1cncn1)C1(F)CC1` (stereo not shown) [Example I-19], the Eff. % with Botrytis cinerea (100 ppm of active ingredient) came out at 100%; in the series with Leptosphaeria nodorum, 100%; in the series on Phakopsora pachyrhizi (10 ppm of active ingredient) it was 96%; with Pyricularia oryzae it was 100%; in [1], 100%; in [2] it was 100%. Further, the Eff. % is reported as 100% with Fusarium culmorum; 100% with Sphaerotheca fuliginea (100 ppm of active ingredient); 75% with Septoria tritici (100 ppm of active ingredient); 88% in the series on Puccinia recondita (100 ppm of active ingredient); 75% in the series with Pyrenophora teres (100 ppm of active ingredient); 98% in the series on Uromyces appendiculatus (100 ppm of active ingredient). This molecule also displayed an Eff. % in the series on Fusarium graminearum of 100%. In addition, the LogP in series [3] was 0.91^[a].
As to `OC(CCc1ccc(Cl)cc1)(Cc1ccncc1Cl)Cn1cncn1` (racemic) [Example I-69], the Eff. % in the series with Leptosphaeria nodorum is 89%; in the series with Phakopsora pachyrhizi (100 ppm of active ingredient), 91%; in [1], 100%; in the series with Venturia inaequalis, 100%; in the series on Sphaerotheca fuliginea (500 ppm of active ingredient), 100%; in the series on Septoria tritici (500 ppm of active ingredient) it was 100%. The Eff. % in the series with Puccinia recondita (500 ppm of active ingredient) amounted to 98%; in the series on Pyrenophora teres (500 ppm of active ingredient) it was 93%; in the series on Uromyces appendiculatus (500 ppm of active ingredient), 100%; in the series on Fusarium graminearum, 71%. Further, the LogP in series [3] was 2.40^[a].

The record behind these values is patent US9822099B2, “Triazole derivatives” (priority 2013, dated 2017).
